In patent publication US11339171B2, “MDM2 inhibitors” (Gan & Lee Pharmaceuticals, priority 2017, dated 2022):
Like-named read-outs stand apart in the source and are kept apart here.

Experiments:
MDM2 = molecular target: T1, MDM2 (Homo sapiens, UniProt Q00987); test: Inhibition test of MDM2-P53 (GST-MDM2, Biotin-P53, Anti-GST-Tb, SA-XL665); assay type: binding; details: for inhibitory effect on MDM2 compared with positive control compound HDM201: labels are Example numbers, the compounds with S-configuration are meant
T1 construct: made in house
T1 sequence (Q00987 whole entry): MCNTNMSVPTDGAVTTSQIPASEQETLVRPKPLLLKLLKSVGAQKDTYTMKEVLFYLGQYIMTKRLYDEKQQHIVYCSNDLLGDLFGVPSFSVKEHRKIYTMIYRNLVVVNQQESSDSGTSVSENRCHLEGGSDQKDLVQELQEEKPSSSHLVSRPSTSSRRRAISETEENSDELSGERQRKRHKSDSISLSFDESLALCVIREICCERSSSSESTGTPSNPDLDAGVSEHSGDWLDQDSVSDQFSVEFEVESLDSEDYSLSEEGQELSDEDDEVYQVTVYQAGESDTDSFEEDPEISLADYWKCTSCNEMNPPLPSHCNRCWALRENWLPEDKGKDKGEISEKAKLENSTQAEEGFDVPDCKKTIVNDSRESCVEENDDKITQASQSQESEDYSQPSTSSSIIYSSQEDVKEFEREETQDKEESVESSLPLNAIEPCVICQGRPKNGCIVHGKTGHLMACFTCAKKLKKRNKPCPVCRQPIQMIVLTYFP
Procedure, shortened: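 Binding was measured by TR-FRET with GST-MDM2 at 4 nM final in PBS with 0.1% BSA, 5 mM DTT and 1 mM AEBSF. Compounds were tested as twelve-point 5-fold dilutions and incubated with the detection mix for 90 min at 25 °C with shaking before plate-reader reading and curve fitting.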

[1] = system: human osteosarcoma cell line SJSA-1; test: Inhibition of proliferation of human osteosarcoma cell line SJSA-1 (DAPI staining, In Cell Analyzer); details: for inhibitory effect on human osteosarcoma cell line SJSA-1 compared with positive control compound HDM201: labels are Example numbers, the compounds with S-configuration are meant
[2] = Homo sapiens, SJSA-1, 72 h, read-out: IC50 (nM), inhibitory activity on proliferation of human osteosarcoma cell line SJSA-1, SJSA-1, incubated 72 h

SMILES | IC50 (MDM2) [nM] | IC50 [1, 2] [nM] | inhibitory effect on MDM2 compared with positive control compound HDM201 (MDM2) | inhibitory effect on human osteosarcoma cell line SJSA-1 compared with positive control compound HDM201 [1] | IC50 ([1]; read-out: IC50 (nM), inhibitory activity on proliferation of human osteosarcoma cell line SJSA-1, SJSA-1, incubated 72 h) [nM]
COc1nc(N(C)C)ncc1-c1nc2c(n1C(C)C)[C@@]1(C(=O)Nc3cc(Cl)ccc31)N(c1cc(Cl)ccc1C)C2=O [Example S-82, (S)-6-chloro-5′-(5-chloro-2-methylphenyl)-2′-(2-(dimethylamino)-4-methoxypyrimidin-5-yl)-3′-isopropyl-3′H-spiro[dihydroindole-3,4′-pyrrolo[3,4-d]imidazole]-2,6′(5′H)-dione] | 1.16 | 7.43 |  |  | 
COc1cc(C2CC2)ncc1-c1nc2c(n1C(C)C)[C@]1(C(=O)Nc3cc(Cl)ccc31)N(c1cc(Cl)ccc1C)C2=O [Example R-103, (R)-6-chloro-5′-(5-chloro-2-methylphenyl)-2′-(6-cyclopropyl-4-methoxypyridin-3-yl)-3′-isopropyl-3′H-spiro[dihydroindole-3,4′-pyrrolo[3,4-d]imidazole]-2,6′(5′H)-dione] | 181 | 2430 |  |  | 
CCOc1ncc(-c2nc3c(n2C(C)C)[C@@]2(C(=O)Nc4cc(Cl)ccc42)N(c2cccc(Cl)c2)C3=O)c(OC)n1 [Example S-123, (S)-6-chloro-5′-(3-chlorophenyl)-2′-(2-ethoxy-4-methoxypyrimidin-5-yl)-3′-isopropyl-3′H-spiro[dihydroindole-3,4′-pyrrolo[3,4-d]imidazole]-2,6′(5′H)-dione] | 2.11 | 321 |  |  | 
COc1cc(C(F)(F)F)ncc1-c1nc2c(n1C(C)C)[C@@]1(C(=O)Nc3cc(Cl)ccc31)N(c1cc(Cl)cnc1C)C2=O [Example S-152, (S)-6-chloro-5′-(5-chloro-2-methylpyridin-3-yl)-3′-isopropyl-2′-(4-methoxy-6-(trifluoromethyl)pyridine-3-yl)-3′H-spiro[dihydroindole-3,4′-pyrrolo[3,4-d]imidazole]-2,6′(5′H)-dione] | 0.78 | 79.8 |  |  | 
COc1ncc(-c2nc3c(n2C(C)C)[C@]2(C(=O)Nc4cc(Cl)ccc42)N(c2cc(Cl)cn(C)c2=O)C3=O)c(OC)n1 [Example R-16, (R)-6-chloro-5′-(5-chloro-1-methyl-2-oxo-1,2-dihydropyridin-3-yl)-2′-(2,4-dimethoxypyrimidin-5-yl)-3′-isopropyl-3′H-spiro[dihydroindole-3,4′-pyrrolo[3,4-d]imidazole]-2,6′(5′H)-dione] | 570 | 20100 |  |  | 
COc1ccc(C(N)=O)cc1-c1nc2c(n1C(C)C)[C@]1(C(=O)Nc3cc(Cl)ccc31)N(c1cc(Cl)ccc1C)C2=O [Example R-29, (R)-3-(6-chloro-5′-(5-chloro-2-methylphenyl)-3′-isopropyl-2,6′-dioxo-5′,6′-dihydro-3′H-spiro[dihydroindole-3,4′-pyrrolo[3,4-d]imidazole]-2′-yl)-4-methoxybenzamide] | 93.6 | 10900 |  |  | 
COc1ccc(-c2nc3c(n2C(C)C)[C@@]2(C(=O)Nc4cc(Cl)ccc42)N(c2cc(Cl)ccc2C)C3=O)cc1 [Example S-64, (S)-6-chloro-5′-(5-chloro-2-methylphenyl)-3′-isopropyl-2′-(4-methoxyphenyl)-3′H-spiro[dihydroindole-3,4′-pyrrolo[3,4-d]imidazole]-2,6′(5′H)-dione] | 11.8 | 726 |  |  | 
COc1cc(Cl)cc(N2C(=O)c3nc(-c4cnc(OC)nc4OC)n(C(C)C)c3[C@]23C(=O)Nc2cc(Cl)ccc23)c1 [Example R-58, (R)-6-chloro-5′-(3-chloro-5-methoxyphenyl)-2′-(2,4-dimethoxypyrimidin-5-yl)-3′-isopropyl-3′H-spiro[dihydroindole-3,4′-pyrrolo[3,4-d]imidazole]-2,6′(5′H)-dione] | 1430 | 5890 |  |  | 
COc1ccc(-c2nc3c(n2C(C)C)C2(C(=O)Nc4cc(Cl)ccc42)N(c2cc(Cl)cnc2C)C3=O)c(OC)c1 (stereo not drawn) [Example 61, 6-chloro-5′-(5-chloro-2-methylpyridin-3-yl)-2′-(2,4-dimethoxyphenyl)-3′-isopropyl-3′H-spiro[dihydroindole-3,4′-pyrrolo[3,4-d]imidazole]-2,6′(5′H)-dione] |  |  | better | better | 
COc1nc(N2CCCC2)ncc1-c1nc2c(n1C(C)C)[C@@]1(C(=O)Nc3cc(Cl)ccc31)N(c1cc(Cl)ccc1C)C2=O [Example S-114, (S)-6-chloro-5′-(5-chloro-2-methylphenyl)-3′-isopropyl-2′-(4-methoxy-2-(pyrrolidine-1-yl)pyrimidin-5-yl)-3′H-spiro[dihydroindole-3,4′-pyrrolo[3,4-d]imidazole]-2,6′(5′H)-dione] | 3.2 | 10.1 |  |  | 
COc1cc(C(C)C)ccc1-c1nc2c(n1C(C)C)[C@]1(C(=O)Nc3cc(Cl)ccc31)N(c1cc(Cl)ccc1C)C2=O [Example R-32, (R)-6-chloro-5′-(5-chloro-2-methylphenyl)-3′-isopropyl-2′-(4-isopropyl-2-methoxyphenyl)-3′H-spiro[dihydroindole-3,4′-pyrrolo[3,4-d]imidazole]-2,6′(5′H)-dione] | 1100 | 8200 |  |  | 
COc1cc(C2CC2)ncc1-c1nc2c(n1C(C)C)[C@@]1(C(=O)Nc3cc(Cl)ccc31)N(c1cc(Cl)cnc1C)C2=O [Example S-143, (S)-6-chloro-5′-(5-chloro-2-methylpyridin-3-yl)-2′-(6-cyclopropyl-4-methoxypyridin-3-yl)-3′-isopropyl-3′H-spiro[dihydroindole-3,4′-pyrrolo[3,4-d]imidazole]-2,6′(5′H)-dione] | 1.1 | 24.9 |  |  | 
CCOc1cc(OC)c(-c2nc3c(n2C(C)C)C2(C(=O)Nc4cc(Cl)ccc42)N(c2cc(Cl)cnc2C)C3=O)cn1 (stereo not drawn) [Example 96, 6-chloro-5′-(5-chloro-2-methylpyridin-3-yl)-2′-(6-ethoxy-4-methoxypyridin-3-yl)-3′-isopropyl-3′H-spiro[dihydroindole-3,4′-pyrrolo[3,4-d]imidazole]-2,6′(5′H)-dione] |  |  | better | better | 
COc1ccc(CC(=O)N(C)C)cc1-c1nc2c(n1C(C)C)[C@@]1(C(=O)Nc3cc(Cl)ccc31)N(c1cc(Cl)ccc1C)C2=O [Example S-70, (S)-2-(3-(6-chloro-5′-(5-chloro-2-methylphenyl)-3′-isopropyl-2,6′-dioxo-5′,6′-dihydro-3′H-spiro[dihydroindole-3,4′-pyrrolo[3,4-d]imidazole]-2′-yl)-4-methoxyphenyl)-N,N-dimethylacetamide] | 0.94 | 73.6 |  |  | 
COc1ncc(-c2nc3c(n2C(C)C)[C@]2(C(=O)Nc4cc(Cl)ccc42)N(c2cc(Cl)ccc2OC)C3=O)c(OC)n1 [Example R-17, (R)-6-chloro-5′-(5-chloro-2-methoxyphenyl)-2′-(2,4-dimethoxypyrimidin-5-yl)-3′-isopropyl-3′H-spiro[dihydroindole-3,4′-pyrrolo[3,4-d]imidazole]-2,6′(5′H)-dione] | 49.4 | 1310 |  |  | 2440
COc1ncc(-c2nc3c(n2C(C)C)[C@]2(C(=O)Nc4cc(Cl)ccc42)N(c2cc(Cl)cnc2C)C3=O)c(OC)n1 [Example R-42, (R)-6-chloro-5′-(5-chloro-2-methylpyridin-3-yl)-2′-(2,4-dimethoxypyrimidin-5-yl)-3′-isopropyl-3′H-spiro[dihydroindole-3,4′-pyrrolo[3,4-d]imidazole]-2,6′(5′H)-dione] | 364 | 4560 |  |  | 
